Measurements reported in ChEMBL document CHEMBL1201862, “PubChem BioAssay data set” (2004).
Activity calls are given as the source filed them.

Columns and labels:
Vero = assay: mammalian cell viability reduction – secondary assay, cytotoxicity control for West Nile virus antiviral project, dose response (AID 1650); assay type: functional; settings: Chlorocebus sabaeus
[1] = A cytotoxicity screen of small molecule inhibitors of the PhoP region in Salmonella typhi identified in the primary screen. [Related pubchem assays: 1850, 1864, 1985 ]; assay type: functional
H4 = assay: Luminescence Cell-Based Dose Response HTS to Identify Activators of 5'UTR Stem-Loop Driven Prion Protein mRNA Translation in H4 Neuroglioblastoma Cells. [Related pubchem assays: 1829 (Project Summary), 1814 (Primary HTS)]; assay type: functional; settings: Homo sapiens
[2] = Luminescence Cell-Based Dose Response HTS to Identify Activators of Luciferase Translation or Activity in H4 […] Cells. [Related pubchem assays: 1829 (Project Summary), 1814 (Primary HTS)]; assay type: functional
[3] = Luminescence Cell-Based Dose Confirmation HTS to Identify Activators of 5'UTR Stem-Loop Driven Alpha-Synuclein mRNA Translation in H4 Neuroglioblastoma Cells. [Related pubchem assays: 1829 (Project Summary), 1814 (Primary HTS)]; assay type: functional
[4] = microbe, parasite or virus in culture; assay type: functional; settings: Mycobacterium tuberculosis
[5] = Luminescence Cell-Based Dose Retest to Confirm Inhibitors of Cancer Stem Cells. [Related pubchem assays (depositor defined):AID2717, AID2721]; assay type: functional; settings: Homo sapiens
[6] = HEK-293T viability loss after treatment – luminescence, T-cell screen hits, cytotoxicity control for TCR NF-kB inhibitor project, dose response (AID 489026); assay type: functional, cell-based;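 note: cells exposed to compound about 14 hours before the viability readout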
[7] = blockers of CRF-binding protein–CRF-R2 complex – cell-based, uHTS hits, 384-well, dose response (AID 651639); assay type: functional, Homo sapiens; settings: read-out: IC50_Mean
[8] = molecular target: T1, Corticotropin-releasing factor receptor 2/Corticotropin-releasing factor-binding protein (Homo sapiens, UniProt P24387+Q13324); assay: activators of CRF receptor 2 with binding protein – uHTS hits, confirmation (AID 602473); assay type: functional; settings: read-out: EC50_Mean
T1 sequence (Q13324 whole entry): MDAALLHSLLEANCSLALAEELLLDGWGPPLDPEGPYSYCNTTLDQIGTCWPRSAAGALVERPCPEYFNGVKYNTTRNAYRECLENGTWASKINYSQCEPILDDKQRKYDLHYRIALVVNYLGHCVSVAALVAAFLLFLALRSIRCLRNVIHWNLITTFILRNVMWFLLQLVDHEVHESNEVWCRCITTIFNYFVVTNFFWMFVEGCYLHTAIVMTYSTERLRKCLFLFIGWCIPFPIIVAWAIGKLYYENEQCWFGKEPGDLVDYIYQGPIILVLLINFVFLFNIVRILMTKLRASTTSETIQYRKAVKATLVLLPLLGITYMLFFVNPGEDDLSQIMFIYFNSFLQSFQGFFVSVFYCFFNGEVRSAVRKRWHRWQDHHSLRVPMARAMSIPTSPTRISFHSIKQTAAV
T1 sequence (P24387 whole entry): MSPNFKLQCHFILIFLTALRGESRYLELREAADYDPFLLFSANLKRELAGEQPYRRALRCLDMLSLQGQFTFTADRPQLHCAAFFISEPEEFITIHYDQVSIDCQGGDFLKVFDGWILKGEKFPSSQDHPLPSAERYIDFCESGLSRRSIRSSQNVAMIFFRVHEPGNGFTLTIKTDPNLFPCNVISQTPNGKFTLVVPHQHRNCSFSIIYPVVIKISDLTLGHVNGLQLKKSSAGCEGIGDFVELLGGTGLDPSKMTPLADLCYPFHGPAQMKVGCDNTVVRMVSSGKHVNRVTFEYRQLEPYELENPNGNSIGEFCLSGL

[9] = molecular target: T1, Corticotropin-releasing factor receptor 2/Corticotropin-releasing factor-binding protein; assay: Dose Response confirmation of uHTS hits for small molecule antagonists of the CRF-binding protein and CRF-R2 receptor complex.; assay type: functional; settings: read-out: IC50_Mean
cells = assay type: functional, cell-based
[10] = molecular target: T2, Short transient receptor potential channel 4 (Mus musculus, UniProt Q9QUQ5); assay: calcium entry via TRPC4 opening agents – cell-based, HEK293 TRPC4/mu-opioid, Fluo-4 calcium, dose response (AID 434937); assay type: functional
T2 sequence (Q9QUQ5 whole entry): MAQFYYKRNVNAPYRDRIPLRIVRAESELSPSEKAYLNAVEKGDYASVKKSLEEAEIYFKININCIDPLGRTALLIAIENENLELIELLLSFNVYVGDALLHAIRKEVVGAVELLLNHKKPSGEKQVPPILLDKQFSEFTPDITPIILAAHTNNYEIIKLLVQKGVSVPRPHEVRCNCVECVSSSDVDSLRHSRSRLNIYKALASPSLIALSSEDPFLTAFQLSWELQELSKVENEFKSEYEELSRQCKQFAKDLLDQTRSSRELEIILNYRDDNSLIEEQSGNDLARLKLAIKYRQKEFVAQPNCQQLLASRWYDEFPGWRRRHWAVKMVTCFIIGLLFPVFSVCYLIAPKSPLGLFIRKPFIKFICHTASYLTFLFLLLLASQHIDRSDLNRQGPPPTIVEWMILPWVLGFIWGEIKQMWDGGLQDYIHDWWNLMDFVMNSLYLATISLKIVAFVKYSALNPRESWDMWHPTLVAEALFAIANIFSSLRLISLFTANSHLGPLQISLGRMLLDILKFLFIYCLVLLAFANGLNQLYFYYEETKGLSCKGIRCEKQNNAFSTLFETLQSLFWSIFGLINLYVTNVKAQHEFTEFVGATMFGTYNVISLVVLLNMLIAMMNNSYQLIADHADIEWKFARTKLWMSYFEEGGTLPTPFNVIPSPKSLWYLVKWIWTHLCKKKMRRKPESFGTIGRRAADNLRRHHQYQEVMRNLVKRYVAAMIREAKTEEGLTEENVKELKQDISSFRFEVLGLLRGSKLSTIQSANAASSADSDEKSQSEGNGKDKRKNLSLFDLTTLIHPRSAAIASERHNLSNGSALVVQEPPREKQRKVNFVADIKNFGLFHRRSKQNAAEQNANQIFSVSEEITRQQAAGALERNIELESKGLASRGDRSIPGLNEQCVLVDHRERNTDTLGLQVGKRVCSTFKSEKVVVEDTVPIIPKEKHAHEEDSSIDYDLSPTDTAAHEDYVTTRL

[11] = non-specific 3'UTR reporter inhibition in Clone20-Shn3RL – cell-based, Renilla luciferase, cherry-picked, counter-screen for Shn3 inhibitor project, dose response (AID 624133); assay type: functional
Coagulation factor XII = molecular target: T3, Coagulation factor XII (Homo sapiens, UniProt P00748); assay type: functional;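 note: activated factor XIIa alpha cleaving a fluorogenic AMC peptide substrate; inhibitor potency from loss of enzyme activity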
T3 sequence (P00748 whole entry): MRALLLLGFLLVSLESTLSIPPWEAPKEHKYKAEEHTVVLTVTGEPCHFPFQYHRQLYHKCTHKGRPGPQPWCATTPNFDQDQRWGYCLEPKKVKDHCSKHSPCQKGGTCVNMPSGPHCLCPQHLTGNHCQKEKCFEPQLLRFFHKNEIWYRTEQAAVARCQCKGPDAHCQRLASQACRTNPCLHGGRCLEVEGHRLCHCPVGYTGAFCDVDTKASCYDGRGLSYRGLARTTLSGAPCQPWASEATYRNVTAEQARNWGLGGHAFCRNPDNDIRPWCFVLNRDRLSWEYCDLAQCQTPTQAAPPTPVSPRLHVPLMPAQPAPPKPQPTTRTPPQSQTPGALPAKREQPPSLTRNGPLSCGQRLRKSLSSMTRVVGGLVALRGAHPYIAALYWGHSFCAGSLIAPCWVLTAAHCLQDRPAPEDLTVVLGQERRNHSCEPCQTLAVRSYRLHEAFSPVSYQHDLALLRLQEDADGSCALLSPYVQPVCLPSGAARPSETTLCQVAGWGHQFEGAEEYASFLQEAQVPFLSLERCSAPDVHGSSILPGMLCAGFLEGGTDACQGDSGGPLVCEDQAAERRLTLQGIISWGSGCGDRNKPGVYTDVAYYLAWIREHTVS

HEK293 [12] = assay: cells; assay type: functional, cell-based; settings: Homo sapiens
BJ [13] = assay: BJ-TERT-LT-ST fibroblast viability loss – cell-based, RAS-independent, luminescence, dose response (AID 1935); assay type: functional; settings: Homo sapiens;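 note: BJ fibroblasts immortalized with TERT plus LT and ST oncogenes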
HEK293 [14] = assay: NOD2 signaling inhibitors in MDP-stimulated cells, cell-based, uHTS, luminescence (AID 2001); assay type: functional; settings: Homo sapiens
BJ [15] = assay: cells; assay type: functional, cell-based; settings: Homo sapiens
HEK293 [16] = assay: cells; assay type: functional, cell-based; settings: Homo sapiens; remark: listed apart in the source
BJ [17] = assay: BJ-TERT fibroblast viability loss – cell-based, RAS-independent, luminescence, dose response (AID 1933); assay type: functional; settings: Homo sapiens
[18] = DRD fibroblast viability loss – cell-based, non-viral oncogenic, luminescence, dose response (AID 1934); assay type: functional; settings: Homo sapiens
HEK293 [19] = assay: inhibition of NOD1-driven NF-kB reporter – cell-based, luminescence, uHTS, primary screen (AID 1578); assay type: functional; settings: Homo sapiens
[20] = molecular target: T4, Carboxy-terminal domain RNA polymerase II polypeptide A small phosphatase 1 (Homo sapiens, UniProt Q9GZU7); assay: CTDSP1 inhibitors, concentration-response, biochemical, absorbance readout, ultra-high-throughput screen actives (AID 540297); assay type: functional
T4 sequence (Q9GZU7 whole entry): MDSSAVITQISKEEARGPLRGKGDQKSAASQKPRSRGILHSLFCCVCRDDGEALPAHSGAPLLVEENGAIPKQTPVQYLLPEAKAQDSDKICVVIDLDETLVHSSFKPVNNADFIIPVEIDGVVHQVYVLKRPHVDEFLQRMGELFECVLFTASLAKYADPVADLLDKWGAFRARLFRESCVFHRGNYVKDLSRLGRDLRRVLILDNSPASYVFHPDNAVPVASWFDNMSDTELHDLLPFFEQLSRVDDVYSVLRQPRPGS

O=S(=O)(CC(CN1CCCCC1)N1CCCCC1)c1ccccc1 (centres undefined)
CC50 (Vero): 14.4 µM (active)

Cc1cc(NC(=O)c2ccccc2)sc1C
EC50 [1]: > 50 µM (active)

O=C(c1ccccc1)c1nn(-c2ccc(Cl)cc2)c(=O)cc1C(F)(F)F
EC50 (H4): > 120 µM (not active) | EC50 [2]: > 120 µM (not active) | EC50 [3]: 0.222 µM (active) | CC50 [4]: 15.7 µM (active) | AC50 [5]: 4.21 µM (active) | IC50 [6]: > 80 µM (inactive)

COC(=O)c1cc(OC)c(OC)cc1NC(=O)c1c(-c2ccccc2Cl)noc1C
IC50 [7]: > 20 µM (inactive) | EC50 [8]: > 53 µM (inactive) | IC50 [9]: < 0.368 µM (active)

CC(C)c1ccc(N(C(=O)c2snc(C(N)=O)c2N)C(C(=O)NC2CCCC2)c2ccncc2)cc1 (centres undefined)
EC50 (cells): > 350 µM (not active)

COc1cccc(NC2=NC(N)=NC3(CCCCC3)N2)c1
EC50 [1]: > 50 µM (active)

COc1ccc(CCN(C)CCC(=O)Nc2c(C)cc(C)cc2C)cc1OC
EC50 [10]: 4.73 µM (active)

Cc1noc(C)c1COC(=O)[C@@H](NC(=O)c1ccccc1)C(C)C
AC50 [11]: 52.5 µM (active)

Cc1c(Cl)cccc1Nc1nc(N)nc(CN2CCc3ccccc3C2)n1
IC50 (Coagulation factor XII): > 50 µM (inactive)

CSC1=NC(c2ccc(C)cc2)=NC(C(Cl)(Cl)Cl)N1 (centres undefined)
IC50 [6]: > 80 µM (inactive)

CCCc1cc(NC(=O)CCl)n(-c2ccccc2)n1
IC50 (HEK293 [12]): 4.55 µM (active) | EC50 (BJ [13]): > 150 µM (not active) | IC50 (HEK293 [14]): 11.1 µM (inactive) | EC50 (BJ [15]): > 150 µM (not active) | IC50 (HEK293 [16]): > 20 µM (inactive) | CC50 [4]: 17.4 µM (active) | EC50 (BJ [17]): 29.7 µM (active) | EC50 [18]: > 150 µM (not active) | EC50 (HEK293 [19]): 14.3 µM (active)

COc1ccc(C(CNC(=O)COc2ccccc2OC)N(C)C)cc1OC (centres undefined)
EC50 [10]: 1.19 µM (active)

Cc1cccc(C)c1NC(=O)CN(C)C(=O)c1ccc2nc[nH]c2c1
IC50 [20]: 28 µM (active)

Brc1c(C[n+]2ccccc2)nc2ccccn12
IC50 (Coagulation factor XII): > 50 µM (inactive)
